Test results from patent publication US8507533B2, “Glucagon receptor modulators” (Pfizer Inc., priority 2011, dated 2013).

How the values were obtained:
human glucagon receptor [1] = molecular target: T1, human glucagon receptor (Homo sapiens (Human), UniProt P47871); experiment: Human Glucagon SPA Assay (binding of [125I]Glucagon-Cex); settings: membrane from chem-1 cells stably transfected with the human glucagon receptor, Ki by Cheng-Prusoff equation
Description: The Glucagon SPA assay is used to determine the ability of test compounds to block the binding of glucagon-cex to the glucagon receptor. Test compounds are re-suspended and serially diluted in 100% DMSO. 1 μl of test compound at the desired concentrations is spotted into the appropriate wells of 96 well low binding white clear bottom plate (Corning). 1 μl of DMSO is spotted into total binding wells. 1 μl of a known glucagon antagonist at a concentration of 20 μM is added to non specific binding wells. […] All assay ingredients with the exception of test compounds are re-suspended in the following buffer; 50 mM Hepes pH 7.4; 5 mM MgCl2; 1 mM CaCl; 5% glycerol and 0.2% BSA. Following a 6-10 hr incubation at room temperature the amount of hot ligand bound to the cell membranes is determined by reading the plates on a Wallac Trilux radioactive emission detector. Data is analyzed using Pfizer's Data analysis program. IC50 values are then determined from the generated sigmoidal dose response curves. Ki values are calculated using Cheng-Prusoff equation. N is the number of times the compound was assayed.

human glucagon receptor [2] = molecular target: T1, human glucagon receptor; experiment: Glucagon cAMP Assay (Cisbio cAMP detection); assay type: cell-based; settings: CHOK1 cells stably transfected with the human glucagon receptor; block of glucagon induced cAMP production; Kb by modified Cheng-Prusoff equation

T1 sequence (P47871 26-477): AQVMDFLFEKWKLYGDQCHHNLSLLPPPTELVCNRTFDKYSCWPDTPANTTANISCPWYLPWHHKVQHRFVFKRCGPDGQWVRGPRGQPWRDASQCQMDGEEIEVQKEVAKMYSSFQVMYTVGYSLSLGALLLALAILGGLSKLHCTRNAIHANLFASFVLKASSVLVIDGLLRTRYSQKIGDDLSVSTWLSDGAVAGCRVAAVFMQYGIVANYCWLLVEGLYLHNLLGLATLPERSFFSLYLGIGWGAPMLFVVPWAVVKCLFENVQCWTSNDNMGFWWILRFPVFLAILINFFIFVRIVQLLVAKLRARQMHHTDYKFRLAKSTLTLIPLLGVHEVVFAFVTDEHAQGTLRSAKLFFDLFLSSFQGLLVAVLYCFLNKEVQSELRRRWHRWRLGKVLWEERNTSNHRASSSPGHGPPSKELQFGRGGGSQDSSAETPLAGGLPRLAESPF

Ki (human glucagon receptor [1])	Kb (human glucagon receptor [2])	SMILES
93 nM	90.8 nM	O=C(O)CCNC(=O)c1ccc(C(Nc2ccc(-n3cnc(C(F)(F)F)c3)nc2)C2CCCC2)cc1 (single isomer, unassigned) [Example 97, 3-(4-(cyclopentyl(6-(4-(trifluoromethyl)-1H-imidazol-1-yl)pyridin-3-ylamino)methyl)benzamido)propanoic acid]
1100 nM	1060 nM	O=C(O)CCNC(=O)c1ccc(C(Nc2ccc(-n3cnc(C(F)(F)F)c3)nc2)C2CCCC2)cc1 (single isomer, unassigned) [Example 98, 3-(4-(cyclopentyl(6-(4-(trifluoromethyl)-1H-imidazol-1-yl)pyridin-3-ylamino)methyl)benzamido)propanoic acid]
7.6 nM	17 nM	CC1(C)CC(C(Nc2ccc(-n3cc(C(F)(F)F)cn3)nc2)c2ccc(C(=O)NCCC(=O)O)cc2)C1 (single isomer, unassigned) [Example 114, 3-(4-((3,3-dimethylcyclobutyl)(6-(4-(trifluoromethyl)-1H-pyrazol-1-yl)pyridin-3-ylamino)methyl)benzamido)propanoic acid]
15.8 nM	231 nM	CC1(C)CC(C(Nc2ccc(-n3cc(C(F)(F)F)cn3)nc2)c2ccc(C(=O)NCCC(=O)O)cc2)C1 (single isomer, unassigned) [Example 115, 3-(4-((3,3-dimethylcyclobutyl)(6-(4-(trifluoromethyl)-1H-pyrazol-1-yl)pyridin-3-ylamino)methyl)benzamido)propanoic acid]
225 nM	65 nM	O=C(O)CCNC(=O)c1ccc(C(Nc2ccc(-n3cnc(Cl)c3)nc2)C2CCCC2)cc1 (single isomer, unassigned) [Example 120, 3-(4-((6-(4-chloro-1H-imidazol-1-yl)pyridin-3-ylamino)(cyclopentyl)methyl)benzamido)propanoic acid]
29.3 nM	13 nM	CCCC(Nc1ccc(-n2cnc(-c3ccccc3)c2)nc1)c1ccc(C(=O)NCCC(=O)O)cc1 (single isomer, unassigned) [Example 129, 3-(4-(1-(6-(4-phenyl-1H-imidazol-1-yl)pyridin-3-ylamino)butyl)benzamido)propanoic acid]
110 nM	876 nM	CC1(C)CC([C@@H](Nc2ccc(-n3cnc(C(F)(F)F)c3)nc2)c2ccc(C(=O)NCCC(=O)O)cc2)C1 (single isomer, unassigned) [Example 134, 3-(4-((3,3-dimethylcyclobutyl)(6-(4-(trifluoromethyl)-1H-imidazol-1-yl)pyridin-3-ylamino)methyl)benzamido)propanoic acid]
35 nM	28 nM	CC1(C)CC([C@@H](Nc2ccc(-n3cnc(C(F)(F)F)c3)nc2)c2ccc(C(=O)NCCC(=O)O)cc2)C1 (single isomer, unassigned) [Example 135, 3-(4-((3,3-dimethylcyclobutyl)(6-(4-(trifluoromethyl)-1H-imidazol-1-yl)pyridin-3-ylamino)methyl)benzamido)propanoic acid]
20.2 nM	27 nM	CCC[C@@H](Nc1ccc(-n2cc(C(C)(C)C)cn2)nc1)c1ccc(C(=O)NCCC(=O)O)cc1 (single isomer, unassigned) [Example 137, 3-(4-(1-(6-(4-tert-butyl-1H-pyrazol-1-yl)pyridin-3-ylamino)butyl)benzamido)propanoic acid]
9.05 nM	21 nM	O=C(O)CCNC(=O)c1ccc([C@@H](Nc2ccc(-n3cc(C(F)(F)F)cn3)nc2)C2CCCCC2)cc1 (single isomer, unassigned) [Example 146, 3-(4-(cyclohexyl(6-(4-(trifluoromethyl)-1H-pyrazol-1-yl)pyridine-3-ylamino)methyl)benzamido)propanoic acid]
26.7 nM	343 nM	O=C(O)CCNC(=O)c1ccc([C@@H](Nc2ccc(-n3cc(C(F)(F)F)cn3)nc2)C2CCCCC2)cc1 (single isomer, unassigned) [Example 147, 3-(4-(cyclohexyl(6-(4-(trifluoromethyl)-1H-pyrazol-1-yl)pyridine-3-ylamino)methyl)benzamido)propanoic acid]
5.55 nM	18.6 nM	CC1(C)CC(C(Nc2cnc(-n3cc(C(F)(F)F)cn3)nc2)c2ccc(C(=O)NCCC(=O)O)cc2)C1 (single isomer, unassigned; isomer 1) [Example 157, 3-(4-((3,3-dimethylcyclobutyl)(2-(4-(trifluoromethyl)-1H-pyrazol-1-yl)pyrimidin-5-ylamino)methyl)benzamido)propanoic acid, Isomer 1]

More lines, now with the values behind:

SMILES	Ki (human glucagon receptor [1])	Kb (human glucagon receptor [2])
CCCC(Oc1ccc(-n2cc3ccc(F)cc3n2)cc1)c1ccc(C(=O)NCCC(=O)O)cc1 (racemic) [Example 186, (+/−)-3-(4-{1-[4-(6-fluoro-indazol-2-yl)-phenoxy]-butyl}-benzoylamino)-propionic acid]	175 nM	192 nM
CCCC(Nc1ccc(-n2cc(C(F)(F)F)cn2)nc1)c1ccc(C(=O)NCCC(=O)O)cc1F (single isomer, unassigned) [Example 109, 3-(3-fluoro-4-(1-(6-(4-(trifluoromethyl)-1H-pyrazol-1-yl)pyridin-3-ylamino)butyl)benzamido)propanoic acid]	153 nM	1710 nM
CCCC(Nc1ccc(-n2cc(C(F)(F)F)cn2)nc1)c1ccc(C(=O)NCCC(=O)O)cc1F (single isomer, unassigned) [Example 110, 3-(3-fluoro-4-(1-(6-(4-(trifluoromethyl)-1H-pyrazol-1-yl)pyridin-3-ylamino)butyl)benzamido)propanoic acid]	57.2 nM	97 nM
CCCC(Nc1ccc(-n2cc(C(F)(F)F)cn2)nc1)c1ccc(C(=O)NCCC(=O)O)cc1C (single isomer, unassigned) [Example 111, 3-(3-methyl-4-(1-(6-(4-(trifluoromethyl)-1H-pyrazol-1-yl)pyridin-3-ylamino)butyl)benzamido)propanoic acid]	202 nM	2350 nM
CCCC(Nc1ccc(-n2cc(C(F)(F)F)cn2)nc1)c1ccc(C(=O)NCCC(=O)O)cc1C (single isomer, unassigned) [Example 112]	143 nM	126 nM
CCCC(Oc1ccc(-n2cc3ccccc3n2)c(C)c1)c1ccc(C(=O)NCCC(=O)O)cc1 (single isomer, unassigned) [Example 116, 3-(4-(1-(4-(2H-indazol-2-yl)-3-methylphenoxy)butyl)benzamido)propanoic acid]	464 nM	450 nM
CCC[C@@H](Nc1ccc(-n2cc(C(C)(C)C)cn2)nc1)c1ccc(C(=O)NCCC(=O)O)cc1 (single isomer, unassigned) [Example 136, 3-(4-(1-(6-(4-tert-butyl-1H-pyrazol-1-yl)pyridin-3-ylamino)butyl)benzamido)propanoic acid]	30.2 nM	222 nM
Cc1cc(OC(c2ccc(C(=O)NCCC(=O)O)cc2)C2CCC2)cc(C)c1-n1cc(C(F)(F)F)cn1 (single isomer, unassigned) [Example 138, 3-(4-(cyclobutyl(3,5-dimethyl-4-(4-(trifluoromethyl)-1H-pyrazol-1-yl)phenoxy)methyl)benzamido)propanoic acid]	5.75 nM	40 nM
CC(C)C[C@H](Nc1ccc(C(=O)NCCC(=O)O)cn1)c1ccc(-n2cc(C(F)(F)F)cn2)nc1 (single isomer, unassigned) [Example 142, 3-(6-(3-methyl-1-(6-(4-(trifluoromethyl)-1H-pyrazol-1-yl)pyridin-3-yl)butylamino)nicotinamido)propanoic acid]	636 nM	883 nM
CC(C)C[C@H](Nc1ccc(C(=O)NCCC(=O)O)cn1)c1ccc(-n2cc(C(F)(F)F)cn2)nc1 (single isomer, unassigned) [Example 143, 3-(6-(3-methyl-1-(6-(4-(trifluoromethyl)-1H-pyrazol-1-yl)pyridin-3-yl)butylamino)nicotinamido)propanoic acid]	57.4 nM	179 nM
CCCC(Oc1cc(C)c(-n2cc(Cl)cn2)c(C)c1)c1ccc(C(=O)NCCC(=O)O)cc1 (single isomer, unassigned) [Example 145, 3-(4-(1-(4-(4-chloro-1H-pyrazol-1-yl)-3,5-dimethylphenoxy)butyl)benzamido)propanoic acid]	93.2 nM	156 nM
CC1(C)CC(C(Oc2cnc(-n3cc(C(F)(F)F)cn3)nc2)c2ccc(C(=O)NCCC(=O)O)cc2)C1 (single isomer, unassigned; isomer 1) [Example 155, 3-(4-((3,3-dimethylcyclobutyl)(2-(4-(trifluoromethyl)-1H-pyrazol-1-yl)pyrimidin-5-yloxy)methyl)benzamido)propanoic acid, Isomer 1]	94.9 nM	313 nM
CC1(C)CC(C(Oc2cnc(-n3cc(C(F)(F)F)cn3)nc2)c2ccc(C(=O)NCCC(=O)O)cc2)C1 (single isomer, unassigned; isomer 1) [Example 156, 3-(4-((3,3-dimethylcyclobutyl)(2-(4-(trifluoromethyl)-1H-pyrazol-1-yl)pyrimidin-5-yloxy)methyl)benzamido)propanoic acid, Isomer 1]	251 nM	246 nM
